# Source: PubChem BioAssay AID1361 (SRMLSC, 2008)
# Calls of active or inactive are those of the source. No rule for the calls is given here.
# Assay: mitochondrial fusion inhibitors, confirmation, cell-based, chemical genetic, wild-type and mutant (AID 1361)
# Details: Cell-based mitochondrial fusion phenotype, imaging
# [1] = mutant cells, measured here: mutant cell line IC50
SMILES,IC50 (WT cells),IC50 [1] [µM]
COC(=O)CNC(c1ccccc1)c1cc(C)ccc1NC(=O)c1cccc(Cl)c1 (stereo unspecified),9.38 µM,> 25
COc1ccc(C(C)(C)C)cc1NC(=O)Nc1ccc2c(c1)OCO2,9.81 µM,23.3
O=c1c2c3c(sc2nc2n1CCC2)CCC3,> 25 µM (inactive),> 25
O=C(Nc1ccccn1)c1ccco1,> 25 µM (inactive),> 25
COc1ccc(/C=C/C(=O)c2ccc(O)cc2)cc1COc1ccc(F)cc1,11.9 µM,> 25
O=[N+]([O-])c1cc(C(F)(F)F)ccc1NCCc1c[nH]c2ccccc12,13.4 µM,18.9
O=C1NC(=O)C(CCc2ccncc2)(Cc2cccc(Cl)c2Cl)C(=O)N1c1ccc(Br)cc1 (stereo unspecified),10.1 µM,> 25
O=C(C1=C[C@@H](c2csc3ccccc23)C[C@@H](OCc2ccc(CO)cc2)O1)N1CCN(Cc2ccccc2)CC1,5.83 µM,> 25
COC(=O)c1ccc(C2C3=C(Nc4nnnn42)c2ccccc2OC3)cc1 (stereo unspecified),> 25 µM (inactive),> 25
CC1CCc2nc(NC(=O)CN3CCN(c4ccc(F)cc4)CC3)sc2C1 (stereo unspecified),> 25 µM (inactive),15.9
CC(C)C(=O)Nc1nnc(SCC(=O)NCc2cccs2)s1,> 25 µM (inactive),> 25
CCCOP(=O)(OCCC)C(Nc1ccc(C(C)C)cc1)c1ccc([N+](=O)[O-])cc1 (stereo unspecified),13.1 µM,> 25
O=C(COC(=O)CCCOc1ccc(Cl)cc1Cl)Nc1cccc(Cl)c1,24 µM (inactive),22.8
CC(C)(C)c1ccc(OCC(=O)N2CCCCCC2)c(Br)c1,> 25 µM (inactive),> 25
CC(=O)Nc1ccc(S(=O)(=O)N2CCSC2c2ccc(Cl)cc2)cc1 (stereo unspecified),> 25 µM (inactive),> 25
CCC(C)(C)NC(=O)CN(C(=O)c1snc(C(N)=O)c1N)c1ccc2c(c1)OCCO2,> 25 µM (inactive),> 25
CCC(=O)N1CCN(c2ccccc2NC(=O)COc2cc(C)ccc2C(C)C)CC1,> 25 µM (inactive),> 25

SMILES,IC50 (WT cells),IC50 [1] [µM]
NNC(=O)c1cc2c(N3CCC(Cc4ccccc4)CC3)ncnc2s1,17.6 µM,> 25
O=C(CNCc1ccccc1Cl)Nc1ccccc1N1CCCCC1,13.2 µM,> 25
CCCOc1ccc(-c2nc(C#N)c(N3CCC(C(N)=O)CC3)o2)cc1,> 25 µM (inactive),> 25
C=C(C)C1CC=C(C)/C(=N\NC(=S)Nc2ccc(C)cc2)C1 (stereo unspecified),> 25 µM (inactive),> 25
CC1CC1C(=O)OCC(=O)NCc1ccc(Cl)cc1Cl (stereo unspecified),> 25 µM (inactive),> 25
Cc1ccc(N=Cc2c(O)n(-c3ccc4c(c3)OCO4)c(=O)c3ccccc23)cc1,> 25 µM (inactive),> 25
CS(=O)(=O)N(Cc1cc2ccccc2[nH]c1=O)C1CCCCC1,> 25 µM (inactive),> 25
CCC(=Nc1ccc(OC)cc1OC)c1c(O)n(C2CCCCC2)c(=O)[nH]c1=O,15.9 µM,> 25
C/C(=C\C(=O)c1ccccc1)Nc1cccc(O)c1,> 25 µM (inactive),> 25
O=C(c1ccccc1)c1nnc(-c2ccncc2)o1,> 25 µM (inactive),> 25
CC1CCCN(c2nc3c(c(=O)[nH]c(=O)n3C)n2Cc2ccccc2Cl)C1 (stereo unspecified),17.4 µM,> 25
CC(C)(C)c1ccc(CSc2nnc(-c3ccccn3)n2Cc2ccco2)cc1,17.6 µM,> 25
N#CC(C#N)=C1C=CC=CN1/C(=C\c1ccccc1Cl)C(=O)c1ccccc1,18.6 µM,> 25
COC(=O)C1=C(O)/C(=C\c2ccc(CNC(=O)C(=O)Nc3ccc(C)cc3)o2)N=C1C,> 25 µM (inactive),> 25
COc1ccc(NC(=S)NNC(=O)COc2ccc(Cl)cc2Cl)cc1,19.5 µM,> 25
CCOC(=O)c1cc2c(ccn2C)n1Cc1cc(C)ccc1C,25 µM (inactive),> 25
